Like-named read-outs stand apart in the source and are kept apart here.
Columns and labels:
[1] = tested on: compound 48/80-induced lethality; experiment: Protection of rats from compound 48/80-induced lethality; type: in vivo, rat (male, inbred Wistar strain); conditions: Rattus norvegicus, 4 h, read-out: Compound 48/80 lethality test in rats-ED50
Experimental: Protection of rats from compound 48/80-induced lethality
The protection from compound 48/80-induced lethal circulatory collapse appears to be a simple way of evaluating quantitatively the antihistaminic activity of test compounds. Male rats of an inbred Wistar strain, weighing 240-260 g were used in the experiment. After overnight starvation the rats were transferred to conditioned laboratories (temp.=21±1° C., relative humidity=65±5%).
The rats were treated subcutaneously or orally with a test compound or with the solvent (NaCl solution, 0.9%). […] Survival after 4 hours is therefore considered to be a safe criterion of a protective effect of drug administration.
The ED50 -values of the compounds of formula (I) are listed in the first column of table 1. Said ED50 -values are the values in mg/kg body weight at which the tested compounds protect 50% of the tested animals against compound 48/80-induced lethality.

[2] = tested on: serotonin; experiment: Antagonistic activity on the effects of serotonin in the gastric lesion test (lesions induced by compound 48/80); type: in vivo, rat (male, Wistar inbred strain)
Source text: The compounds of formula (I) and the pharmaceutically acceptable acid addition salts thereof are also potent serotonin-antagonists. The potency of the subject compounds as serotonin-antagonists is clearly evidenced by the results obtained in the following tests wherein the antagonistic activity of the subject compounds on the effect of serotonin is examined.
Antagonistic activity on the effects of serotonin in the gastric lesion test
Comound 48/80 (a mixture of oligomers obtained by condensation of 4-methoxy-N-methylbenzeneethanamine and formaldehyde) is a potent releaser of vasoactive amines from endogenous stores such as, for example, histamine and serotonin. […] The shock, followed by dead, can be avoided if the rats are pretreated with a classical H 1 antagonist.
Male rats of a Wistar inbred strain, weighing 220-250 g, were starved overnight, water being available ad libitum. The test compounds were administered orally as a solution or as a suspension in aqueous medium. A control rat and a "blank" rat received the test compound. One hour later 5-[4-(diphenylmethyl)-1-piperazinylmethyl]-1-methyl-1H-benzimidazole-2-methanol was administered subcutaneously to all rats at the dose of 2.5 mg/kg.
Four hours after the intravenous injection of compound 48/80, the rats were decapitated and the stomachs were removed. Subsequently the stomachs ere inspected for distension and contents (blood, fluid, food) and thoroughly rinsed. The macroscopic lesions were scored from 0 to +++, 0 corresponding to complete absence of visible lesions and the highest score corresponding to reddish rough patches covering more than half the glandular area.

[3] = Rattus norvegicus, po, 4 h; read-out: gastric lesion test ED50 (distension of the stomach and lesions in the glandular area completely absent in 50% of rats)
[4] = Rattus norvegicus, po, 4 h, read-out: gastric lesion test ED50 (distension of the stomach and lesions in the glandular area completely absent in 50% of rats)

`O=c1c2ccccc2[nH]c(=S)n1CCN1CCC(Nc2nc3ccccc3n2Cc2ccco2)CC1` [Compound 132, 3-[2-[4-[[1-(2-furanylmethyl)-1H-benzimidazol-2-yl]amino]-1-piperidinyl]ethyl]-2,3-dihydro-2-thioxo-4(1H)-quinazolinone] showed an ED50 [1] of 0.16 mg/kg.
`c1coc(Cn2c(NC3CCN(CCNc4nc5cnccc5[nH]4)CC3)nc3cccnc32)c1` [Compound 119] showed an ED50 [1] of 0.04 mg/kg and an ED50 [2, 3] of 0.63 mg/kg.
`Cc1nc2c(NCCN3CCC(Nc4nc5ccccc5n4Cc4ccc(F)cc4)CC3)ncnc2n1C` [Compound 96] gave an ED50 [1] of 0.16 mg/kg.
With `Cn1c(=O)n(CCN2CCC(Nc3nc4ccccc4n3Cc3ccco3)CC2)c(=O)c2ccccc21` [Compound 34] the ED50 [1] was 0.08 mg/kg and the ED50 [2, 3] was 0.16 mg/kg.
In the case of `Cn1c(=O)c2c(ncn2CCN2CCC(Nc3nc4ccccc4n3Cc3ccco3)CC2)n(C)c1=O` [Compound 39], the ED50 [1] is reported as 0.16 mg/kg and the ED50 [2, 3] is reported as 0.63 mg/kg.
With `O=c1[nH]c2ccccc2c(=O)n1CCN1CCC(Nc2nc3cccnc3n2Cc2ccco2)CC1` [Compound 26] the ED50 [1] was 0.08 mg/kg.
`O=c1[nH]c2ccccc2c(=O)n1CCCN1CCC(Nc2nc3cccnc3n2Cc2ccco2)CC1` [Compound 32] gave an ED50 [1] of 0.04 mg/kg.
In the case of `O=c1[nH]c2ccccc2c(=O)n1CCN1CCC(Nc2nc3cccnc3n2Cc2ccc(F)cc2)CC1` [Compound 25], the ED50 [1] is reported as 0.16 mg/kg.
In the case of `CCOC(=O)N1CCc2nc(NCCN3CCC(Nc4nc5ccccc5n4Cc4ccc(F)cc4)CC3)sc2C1` [Compound 147, ethyl 2-[[2-[4-[[1-[4-fluorophenyl)methyl]-1H-benzimidazol-2-yl]amino]-1-piperidinyl]ethyl]amino]-4,5-dihydro-thiazolo[4,5-d]pyridine-6(7H)-carboxylate (E)-2-butenedioate (1:2) monohydrate], the ED50 [1] is reported as 0.31 mg/kg and the ED50 [2, 3] is reported as 0.63 mg/kg.
In the case of `Fc1ccc(Cn2c(NC3CCN(CCCNc4nc5cnccc5[nH]4)CC3)nc3ccccc32)cc1` [Compound 122, N-[3-[4-[[1-[(4-fluorophenyl)methyl]-1H-benzimidazol-2-yl]amino]-1-piperidinyl]propyl]-1H-imidazo[4,5-c]pyridin-2-amine ethanedioate(2:7)], the ED50 [1] is reported as 0.02 mg/kg and the ED50 [2, 3] is reported as 0.63 mg/kg.
`Cc1nc2ccc(Cl)cn2c(=O)c1CCN1CCC(Nc2nc3cccnc3n2Cc2ccco2)CC1` [Compound 21] gave an ED50 [1] of 0.04 mg/kg and an ED50 [2, 3] of 0.63 mg/kg.
With `Cc1ccn2c(=O)c(CCN3CCC(Nc4nc5cccnc5n4Cc4ccco4)CC3)c(C)nc2c1` [Compound 74] the ED50 [1] was 0.04 mg/kg and the ED50 [2, 3] was 0.16 mg/kg.
Work on `Fc1ccc(Cn2c(NC3CCN(Cc4cn5cccnc5n4)CC3)nc3ccccc32)cc1` [Compound 40] yielded an ED50 [1] of 0.16 mg/kg and an ED50 [2, 4] of 0.16 mg/kg.
Compound `Cn1c(=S)n(CCN2CCC(Nc3nc4ccccc4n3Cc3ccco3)CC2)c(=O)c2ccccc21` [Compound 129, 3-[2-[4-[[1-(2-furanylmethyl)-1H-benzimidazol-2-yl]amino]-1-piperidinyl]ethyl]-2,3-dihydro-1-methyl-2-thioxo-4(1H)-quinazolinone] has an ED50 [1] of 0.08 mg/kg and an ED50 [2, 3] of 0.31 mg/kg.
Work on `c1coc(Cn2c(NC3CCN(CCNc4nc5cnccc5[nH]4)CC3)nc3ccccc32)c1` [Compound 111] yielded an ED50 [1] of 0.02 mg/kg and an ED50 [2, 3] of 0.08 mg/kg.
For `Fc1ccc(Cn2c(NC3CCN(CCNc4nc5cccnc5s4)CC3)nc3ccccc32)cc1` [Compound 103, N-[2-[4-[[1-[(4-fluorophenyl)methyl]-1H-benzimidazol-2-yl]amino]-1-piperidinyl]ethyl]thiazolo[5,4-b]pyridin-2-amine], the ED50 [1] was 0.16 mg/kg and the ED50 [2, 3] was 0.63 mg/kg.
For `Cn1cnc2c1c(=O)n(CCN1CCC(Nc3nc4ccccc4n3Cc3ccc(F)cc3)CC1)c(=O)n2C` [Compound 8], the ED50 [1] was 0.16 mg/kg and the ED50 [2, 4] was 0.63 mg/kg.
`Fc1ccc(Cn2c(NC3CCN(CCNc4nc5cnccc5[nH]4)CC3)nc3cccnc32)cc1` [Compound 114] gave an ED50 [1] of 0.02 mg/kg and an ED50 [2, 3] of 0.63 mg/kg.
`Cc1nc2n(c(=O)c1CCN1CCC(Nc3nc4cccnc4n3Cc3ccco3)CC1)C(C)CCC2` (stereo not shown) [Compound 54] showed an ED50 [1] of 0.31 mg/kg.
`Cc1nc2ccccn2c(=O)c1CCN1CCC(Nc2nc3ccccc3n2Cc2cnccn2)CC1` [Compound 68, 2-methyl-3-[2-[4-[[1-(2-pyrazinylmethyl)-1H-benzimidazol-2-yl]amino]-1-piperidinyl]ethyl]-4H-pyrido[1,2-a]pyrimidin-4-one] gave an ED50 [1] of 0.08 mg/kg.
Compound `Cn1cnc2c(NCCN3CCC(Nc4nc5ccccc5n4Cc4ccccc4)CC3)ncnc21` [Compound 100] has an ED50 [1] of 0.16 mg/kg.
`O=c1[nH]c2c(Cl)ncnc2n1CCN1CCC(Nc2nc3ccccc3n2Cc2ccc(F)cc2)CC1` [Compound 144, 6-chloro-9-[2-[4-[[1-[(4-fluorophenyl)methyl]-1H-benzimidazol-2-yl]amino]-1-piperidinyl]ethyl]-7,9-dihydro-8H-purin-8-one] showed an ED50 [1] of 0.08 mg/kg.
For `Cn1c(=O)n(CCN2CCC(Nc3nc4cccnc4n3Cc3ccco3)CC2)c(=O)c2ccccc21` [Compound 35], the ED50 [1] was 0.02 mg/kg.
In the case of `Cc1nc2n(c(=O)c1CCN1CCC(Nc3nc4cccnc4n3Cc3ccco3)CC1)CCS2` [Compound 48], the ED50 [1] is reported as 0.08 mg/kg.
`O=c1[nH]c2ccccc2c(=O)n1CCCN1CCC(Nc2nc3cccnc3n2Cc2ccc(F)cc2)CC1` [Compound 37] was tested, and the ED50 [1] was 0.16 mg/kg.
In the case of `Cc1nc2n(c(=O)c1CCN1CCC(Nc3nc4ccccc4n3Cc3ccco3)CC1)CCCC2` [Compound 44], the ED50 [1] is reported as 0.16 mg/kg.
`Cn1c(=O)c2c(ncn2CCN2CCC(Nc3nc4cccnc4n3Cc3ccc(F)cc3)CC2)n(C)c1=O` [Compound 43] gave an ED50 [1] of 0.16 mg/kg.
For `c1ccc(Cn2c(NC3CCN(CCNc4nc5cnccc5[nH]4)CC3)nc3cccnc32)nc1` [Compound 113], the ED50 [1] was 0.04 mg/kg.
`Cn1c(=O)c2c(ncn2CCN2CCC(Nc3nc4cccnc4n3Cc3ccco3)CC2)n(C)c1=O` [Compound 42] was tested, and the ED50 [1] was 0.16 mg/kg.
Compound `Cn1cnc2c(NCCN3CCC(Nc4nc5cc(O)ccc5n4Cc4ccc(F)cc4)CC3)ncnc21` [Compound 102] has an ED50 [1] of 0.08 mg/kg.
`Fc1ccc(Cn2c(NC3CCN(CCOc4nc5cccnc5s4)CC3)nc3ccccc32)cc1` [Compound 107, 1-[(4-fluorophenyl)methyl]-N-[1-[2-[(thiazolo[5,4-b]pyridin-2-yl)oxy]ethyl]-4-piperidinyl]-1H-benzimidazol-2-amine] showed an ED50 [1] of 0.16 mg/kg.
For `Cc1nc2n(c(=O)c1CCN1CCC(Nc3nc4cccnc4n3Cc3ccc(F)cc3)CC1)CCCS2` [Compound 16], the ED50 [1] was 0.16 mg/kg.
`Fc1ccc(Cn2c(NC3CCN(CCc4cn5cccnc5n4)CC3)nc3ccccc32)cc1` [Compound 151, 1-[(4-fluorophenyl)methyl]-N-[1-[2-(imidazo[3,2-a]pyrimidin-2-yl)ethyl]-4-piperidinyl]-1H-benzimidazol-2-amine] was tested, and the ED50 [1] was 0.08 mg/kg.
For `Cc1nc2n(c(=O)c1CCN1CCC(Nc3nc4ccccc4n3Cc3ccccn3)CC1)CCCC2` [Compound 57], the ED50 [1] was 0.16 mg/kg.
For `O=c1[nH]c2ccccc2c(=O)n1CCCN1CCC(Nc2nc3ccccc3n2Cc2ccco2)CC1` [Compound 30], the ED50 [1] was 0.16 mg/kg.
Compound `Cc1nc2n(c(=O)c1CCN1CCC(Nc3nc4ccccc4n3Cc3ccc(Cl)cc3)CC1)CCCC2` [Compound 69] has an ED50 [1] of 0.16 mg/kg.
With `Cc1nc2ccc(Br)cn2c(=O)c1CCN1CCC(Nc2nc3cccnc3n2Cc2ccco2)CC1` [Compound 76] the ED50 [1] was 0.08 mg/kg.
Compound `Cn1c(=O)n(CCN2CCC(Nc3nc4cccnc4n3Cc3ccc(F)cc3)CC2)c(=O)c2ccccc21` [Compound 36] has an ED50 [1] of 0.16 mg/kg.
`Cc1nc2cccc(C)n2c(=O)c1CCN1CCC(Nc2nc3cccnc3n2Cc2ccco2)CC1` [Compound 75] showed an ED50 [1] of 0.01 mg/kg.
`O=c1[nH]c2ccccc2c(=O)n1CCCCN1CCC(Nc2nc3ccccc3n2Cc2ccco2)CC1` [Compound 128, 3-[4-[4-[[1-(2-furanylmethyl)-1H-benzimidazol-2-yl]amino]-1-piperidinyl]-butyl]-2,4(1H,3H)-quinazolinedione] showed an ED50 [1] of 0.08 mg/kg.
In the case of `Cc1nc2sccn2c(=O)c1CCN1CCC(Nc2nc3ccccc3n2Cc2ccc(F)cc2)CC1` [Compound 27], the ED50 [1] is reported as 0.08 mg/kg.
Work on `Cc1nc2n(c(=O)c1CCN1CCC(Nc3nc4cccnc4n3Cc3ccco3)CC1)CCCS2` [Compound 14] yielded an ED50 [1] of 0.02 mg/kg.
Compound `Cc1nc2ccccn2c(=O)c1CCN1CCC(Nc2nc3ccncc3n2Cc2ccc(F)cc2)CC1` [Compound 79] has an ED50 [1] of 0.16 mg/kg.
Work on `Cc1nc2n(c(=O)c1CCN1CCC(Nc3nc4ccccc4n3Cc3ccc(F)cc3)CC1)CCCC2` [Compound 45] yielded an ED50 [1] of 0.08 mg/kg.
Work on `Cc1nc2ccccn2c(=O)c1CCN1CCC(Nc2nc3cccnc3n2Cc2ccc(F)cc2)CC1.Cl.Cl` [Compound 22, 3-[2-[4-[[3-[(4-fluorophenyl)methyl]-3H-imidazo[4,5-b]-pyridin-2-yl]amino]-1-piperidinyl]ethyl]-2-methyl-4H-pyrido[1,2-a]pyrimidin-4-one dihydrochloride] yielded an ED50 [1] of 0.16 mg/kg.
